Laboratory results as given in patent publication US8530650B2, “2, 5-diamino-substituted pyrido [4, 3-D] pyrimidines as autotaxin inhibitors against cancer” (MERCK PATENT GmbH, priority 2008, dated 2013).

What follows are compounds tested against T1, recombinant autotaxin (Homo sapiens, UniProt Q13822) (assay: Autotaxin assay (Amplex Red, LPC substrate)). Conditions: 75 μM LPC, Amplex Red fluorescence, ten 1:3 dilutions starting at 30 μM.
T1 construct: made in house; host or cells: Hi5 insect cells (baculovirus)
Format: biochemical
Experimental: Autotaxin activity is measured indirectly by means of Amplex Red Reagent. In this course, Amplex Red is measured as fluorogenic indicator for generated H2O2. Autotaxin converts substrate lysophosphatidylcholine (LPC) to phosphocholine and lysophosphatidylic acid (LPA). After the conversion phosphocholine is reacted with alkaline phosphatase to obtain inorganic phosphate and choline. During the next step choline is oxidized with choline oxidase to yield betaine, whereby H2O2 is generated. H2O2 reacts with Amplex Red Reagent in the presence of peroxidase (Horseradish peroxidase) in an 1:1 stochiometry and yields highly fluorescent resorufin. The generated fluorescence is measured in a reaction-dependent kinetic mode in order to enable subtraction of fluorescence signals of possible other fluorescent compounds that are not part of the reaction from total measured fluorescence.
1.5 μl of a standard solution or of the compounds of the invention are dissolved in 20 mM Hepes pH 7.2 with maximally 7.7% DMSO in individual concentrations. The resulting solution is pre-incubated together with 10 μl (16 ng) of highly purified recombinant autotaxin in a black 384-hole microtiter plate for 30 min at 22° C. Thereafter, the reaction is started through the addition of 5 μL-a-lysophosphatidylcholine (LPC), whereby the final concentration of LPC is 75 μM. The mixture is incubated for 90 min. at 37° C. After the incubation Amplex Red Reagent, peroxidase (Horseradish peroxidase) and choline oxidase are added. The fluorescence is immediately measured at a wavelength of 612 nm with an excitation wavelength of 485 nm in a “Tecan Ultra multimode” fluorescence reader. The activity of autotaxin is indirectly calculated via the amount of detected generated H2O2.
For IC50 analysis, ten serial 1:3 dilutions starting at 30 μM for each compound were run in duplicates.
IC50 values were calculated on normalized data. For normalization, control wells were added to each assay plate and the signal of uninhibited control wells was set to 100%, whereas the signal inhibited by 500 μM C14 LPA, (Avanti Polar Lipids, Cat# 857120P) was set to 0%. Curves were fitted and IC50 values calculated by the following model using proprietary analysis software: Y=Bottom+(100−Bottom)/(1+10^((LogIC50−X)*HillSlope))
Where X is the logarithm of concentration. Y is the response; Y starts at Bottom and goes to Top with a sigmoid shape.
Protein: Recombinant autotaxin (baculoviral Hi5 expression)
Substrate: L-a-lysophosphatidyl choline (chicken egg); Avanti Polar Lipids #830071 P
Standard: C14 LPA, Avanti Polar Lipids, Cat# 857120P
Detection Reagent Amplex Red Reagent; Invitrogen #A12222; dissolved in 1.923 ml of DMSO peroxidase Type VI-A (horseradish), Sigma #P6782; dissolved in 7.45 ml of test buffer, Choline Oxidase; Sigma #C5896; dissolved in 2.47 ml test buffer
Detection Reagent Mix: 1:100 dilution of Amplex Red Regent in test buffer
Test buffer: 200 mM Tris-HCl, Merck, Cat # 1.08219, pH 7.9; 0.1% BSA, lipid free, Roche Cat#775835
Compound `COc1ccc(CNc2ncc3c(Nc4ccc5c(c4)OCCO5)nccc3n2)cc1` [Compound 55, N5-(2,3-Dihydro-benzo[1,4]dioxin-6-yl)-N2-(4-methoxy-benzyl)-pyrido[4,3-d]pyrimidine-2,5-diamine] has an IC50 of less than 30 µM.
Work on `Clc1ccccc1CNc1ncc2c(NCCc3cccnc3)nccc2n1` [Compound 147, N2-(2-Chloro-benzyl)-N5-(2-pyridin-3-yl-ethyl)-pyrido[4,3-d]pyrimidine-2,5-diamine] yielded an IC50 of less than 30 µM.
In the case of `O=C(NCc1ccco1)N1CCN(c2nccc3nc(NCc4ccccc4Cl)ncc23)CC1` [Compound 117, 4-[2-(2-Chloro-benzylamino)-pyrido[4,3-d]pyrimidin-5-yl]-piperazine-1-carboxylic acid (furan-2-ylmethyl)-amide], the IC50 is reported as less than 30 µM.
In the case of `CC(=O)N1CCN(c2nccc3nc(NCc4ccccc4Cl)ncc23)CC1` [Compound 115, 1-{4-[2-(2-Chloro-benzylamino)-pyrido[4,3-d]pyrimidin-5-yl]-piperazin-1-yl}-ethanone], the IC50 is reported as less than 30 µM.
For `COc1ccccc1CNc1ncc2c(Nc3ccc(F)cc3C)nccc2n1` [Compound 41, N5-(4-Fluoro-2-methyl-phenyl)-N2-(2-methoxy-benzyl)-pyrido[4,3-d]pyrimidine-2,5-diamine], the IC50 was less than 30 µM.
Work on `Fc1ccc(CNc2ncc3c(Nc4ccccc4F)nccc3n2)cc1` [Compound 24, N2-(4-Fluoro-benzyl)-N5-(2-fluoro-phenyl)-pyrido[4,3-d]pyrimidine-2,5-diamine] yielded an IC50 of less than 30 µM.
Compound `CC(=O)CCC(=O)N1CCN(c2nccc3nc(NCc4ccccc4Cl)ncc23)CC1` [Compound 123, 1-{4-[2-(2-Chloro-benzylamino)-pyrido[4,3-d]pyrimidin-5-yl]-piperazin-1-yl}-pentane-1,4-dione] has an IC50 of less than 30 µM.
For `CCOCCCNC(=O)C1CCCN(c2nccc3nc(NCc4ccccc4Cl)ncc23)C1` (centres unmarked) [Compound 88, 1-[2-(2-Chloro-benzylamino)-pyrido[4,3-d]pyrimidin-5-yl]-piperidine-3-carboxylic acid (3-ethoxy-propyl)-amide], the IC50 was less than 10 µM.
`COc1ccccc1CNc1ncc2c(N3CCC(C(=O)NCc4ccco4)CC3)nccc2n1` [Compound 74, 1-[2-(2-Methoxy-benzylamino)-pyrido[4,3-d]pyrimidin-5-yl]-piperidine-4-carboxylic acid (furan-2-ylmethyl)-amide] gave an IC50 of less than 30 µM.
With `O=C(C1CCN(c2nccc3nc(NCc4ccccc4Cl)ncc23)CC1)N1CCCC1` [Compound 66, {1-[2-(2-Chloro-benzylamino)-pyrido[4,3-d]pyrimidin-5-yl]-piperidin-4-yl}-pyrrolidin-1-yl-methanone] the IC50 was less than 5 µM.
`Clc1ccccc1CNc1ncc2c(NCCc3ccccn3)nccc2n1` [Compound 146, N2-(2-Chloro-benzyl)-N5-(2-pyridin-2-yl-ethyl)-pyrido[4,3-d]pyrimidine-2,5-diamine] showed an IC50 of less than 30 µM.
`COc1ccccc1CNc1ncc2c(Nc3ccc(C)cc3)nccc2n1` [Compound 36, N2-(2-Methoxy-benzyl)-N5-p-tolyl-pyrido[4,3-d]pyrimidine-2,5-diamine] was tested, and the IC50 was less than 30 µM.
In the case of `c1ccc(CNc2ncc3c(Nc4ccc5c(c4)OCO5)nccc3n2)cc1` [Compound 5, N5-Benzo[1,3]dioxol-5-yl-N2-benzyl-pyrido[4,3-d]pyrimidine-2,5-diamine], the IC50 is reported as less than 30 µM.
With `CCN1CCN(C(=O)C2CCN(c3nccc4nc(NCc5ccccc5Cl)ncc34)CC2)CC1` [Compound 72, {1-[2-(2-Chloro-benzylamino)-pyrido[4,3-d]pyrimidin-5-yl]-piperidin-4-yl}-(4-ethyl-piperazin-1-yl)-methanone] the IC50 was less than 5 µM.
In the case of `COc1ccc(CNc2ncc3c(N4CCCC(C(=O)N5CCN(c6ccccn6)CC5)C4)nccc3n2)cc1` (centres unmarked) [Compound 95, {1-[2-(4-Methoxy-benzylamino)-pyrido[4,3-d]pyrimidin-5-yl]-piperidin-3-yl}-(4-pyridin-2-yl-piperazin-1-yl)-methanone], the IC50 is reported as less than 30 µM.
`COCCCNC(=O)C1CCN(c2nccc3nc(NCc4ccccc4Cl)ncc23)CC1` [Compound 73, 1-[2-(2-Chloro-benzylamino)-pyrido[4,3-d]pyrimidin-5-yl]-piperidine-4-carboxylic acid (3-methoxy-propyl)-amide] was tested, and the IC50 was less than 5 µM.
`O=C(NCc1cccnc1)C1CCCN(c2nccc3nc(NCc4ccccc4Cl)ncc23)C1` (centres unmarked) [Compound 81, 1-[2-(2-Chloro-benzylamino)-pyrido[4,3-d]pyrimidin-5-yl]-piperidine-3-carboxylic acid (pyridin-3-ylmethyl)-amide] gave an IC50 of less than 5 µM.
For `CNC(=O)C1CCN(c2nccc3nc(NCc4ccccc4Cl)ncc23)CC1` [Compound 139, 1-[2-(2-Chloro-benzylamino)-pyrido[4,3-d]pyrimidin-5-yl]-piperidine-4-carboxylic acid methylamide], the IC50 was less than 30 µM.
With `Fc1ccc(Nc2nccc3nc(NCc4ccc(Cl)cc4)ncc23)cc1` [Compound 42, N2-(4-Chloro-benzyl)-N5-(4-fluoro-phenyl)-pyrido[4,3-d]pyrimidine-2,5-diamine] the IC50 was less than 30 µM.
In the case of `Fc1ccc(Nc2nccc3nc(NCc4ccc(Cl)cc4)ncc23)c(F)c1` [Compound 45, N2-(4-Chloro-benzyl)-N5-(2,4-difluoro-phenyl)-pyrido[4,3-d]pyrimidine-2,5-diamine], the IC50 is reported as less than 30 µM.
`COc1ccc(CNc2ncc3c(Nc4ccc(F)cc4C)nccc3n2)cc1` [Compound 59, N5-(4-Fluoro-2-methyl-phenyl)-N2-(4-methoxy-benzyl)-pyrido[4,3-d]pyrimidine-2,5-diamine] showed an IC50 of less than 10 µM.
In the case of `COc1ccc(Nc2nccc3nc(NCc4ccccc4Cl)ncc23)c(OC)c1` [Compound 14, N2-(2-Chloro-benzyl)-N5-(2,4-dimethoxy-phenyl)-pyrido[4,3-d]pyrimidine-2,5-diamine], the IC50 is reported as less than 30 µM.
`COc1ccccc1CNc1ncc2c(Nc3ccccc3C)nccc2n1` [Compound 34, N2-(2-Methoxy-benzyl)-N5-o-tolyl-pyrido[4,3-d]pyrimidine-2,5-diamine] gave an IC50 of less than 30 µM.
`COc1ccccc1CNc1ncc2c(N3CCC(C(=O)N4CCN(c5ccccn5)CC4)CC3)nccc2n1` [Compound 76, {1-[2-(2-Methoxy-benzylamino)-pyrido[4,3-d]pyrimidin-5-yl]-piperidin-4-yl}-(4-pyridin-2-yl-piperazin-1-yl)-methanone] was tested, and the IC50 was less than 30 µM.
In the case of `COCCOCC(=O)N1CCN(c2nccc3nc(NCc4ccccc4Cl)ncc23)CC1` [Compound 136, 1-{4-[2-(2-Chloro-benzylamino)-pyrido[4,3-d]pyrimidin-5-yl]-piperazin-1-yl}-2-(2-methoxy-ethoxy)-ethanone], the IC50 is reported as less than 30 µM.
With `COc1ccccc1CNc1ncc2c(N3CCCC3)nccc2n1` [Compound 31, (2-Methoxy-benzyl)-(5-pyrrolidin-1-yl-pyrido[4,3-d]pyrimidin-2-yl)-amine] the IC50 was less than 30 µM.
For `Clc1ccccc1CNc1ncc2c(NCc3ccccc3Cl)nccc2n1` [Compound 10, N2,N5-Bis-(2-chloro-benzyl)-pyrido[4,3-d]pyrimidine-2,5-diamine], the IC50 was less than 30 µM.
`COc1ccc(CNc2ncc3c(Nc4ccc(OC)c(OC)c4)nccc3n2)cc1` [Compound 54, N5-(3,4-Dimethoxy-phenyl)-N2-(4-methoxy-benzyl)-pyrido[4,3-d]pyrimidine-2,5-diamine] was tested, and the IC50 was less than 30 µM.
In the case of `COc1ccc(Nc2nccc3nc(NCc4ccccc4Cl)ncc23)cc1` [Compound 9, N2-(2-Chloro-benzyl)-N5-(4-methoxy-phenyl)-pyrido[4,3-d]pyrimidine-2,5-diamine], the IC50 is reported as less than 30 µM.
`CC(C)NC(=O)C1CCCN(c2nccc3nc(NCc4ccccc4Cl)ncc23)C1` (centres unmarked) [Compound 84, 1-[2-(2-Chloro-benzylamino)-pyrido[4,3-d]pyrimidin-5-yl]-piperidine-3-carboxylic acid isopropylamide] showed an IC50 of less than 5 µM.
In the case of `Clc1ccccc1CNc1ncc2c(N3CCCC3)nccc2n1` [Compound 8, (2-Chloro-benzyl)-(5-pyrrolidin-1-yl-pyrido[4,3-d]pyrimidin-2-yl)-amine], the IC50 is reported as less than 5 µM.
Work on `Cn1cc(CCC(=O)N2CCN(c3nccc4nc(NCc5ccccc5Cl)ncc34)CC2)cn1` [Compound 120, 1-{4-[2-(2-Chloro-benzylamino)-pyrido[4,3-d]pyrimidin-5-yl]-piperazin-1-yl}-3-(1-methyl-1H-pyrazol-4-yl)-propan-1-one] yielded an IC50 of less than 30 µM.
